ChEMBL document CHEMBL1139120, “Discovery of novel phosphorus-containing steroids as selective glucocorticoid receptor antagonist” (Bioorg Med Chem Lett, 2007)
Activity calls are given as the source filed them. The calls are words filed in the database; no cut-off is given here.

Experiments:
[1] = Permeability across Caco-2 cells; assay type: ADME, cell-based; conditions: human, read-out: permeability
Glucocorticoid receptor = target: T1, Glucocorticoid receptor (Homo sapiens, UniProt P04150); assay: Antagonist activity at glucocorticoid receptor expressed in human A549 cells assessed as inhibition of corticoid-induced transcription by glucocorticoid response element-linked luciferase reporter gene assay; assay type: functional, cell-based
T1 sequence (P04150 whole entry): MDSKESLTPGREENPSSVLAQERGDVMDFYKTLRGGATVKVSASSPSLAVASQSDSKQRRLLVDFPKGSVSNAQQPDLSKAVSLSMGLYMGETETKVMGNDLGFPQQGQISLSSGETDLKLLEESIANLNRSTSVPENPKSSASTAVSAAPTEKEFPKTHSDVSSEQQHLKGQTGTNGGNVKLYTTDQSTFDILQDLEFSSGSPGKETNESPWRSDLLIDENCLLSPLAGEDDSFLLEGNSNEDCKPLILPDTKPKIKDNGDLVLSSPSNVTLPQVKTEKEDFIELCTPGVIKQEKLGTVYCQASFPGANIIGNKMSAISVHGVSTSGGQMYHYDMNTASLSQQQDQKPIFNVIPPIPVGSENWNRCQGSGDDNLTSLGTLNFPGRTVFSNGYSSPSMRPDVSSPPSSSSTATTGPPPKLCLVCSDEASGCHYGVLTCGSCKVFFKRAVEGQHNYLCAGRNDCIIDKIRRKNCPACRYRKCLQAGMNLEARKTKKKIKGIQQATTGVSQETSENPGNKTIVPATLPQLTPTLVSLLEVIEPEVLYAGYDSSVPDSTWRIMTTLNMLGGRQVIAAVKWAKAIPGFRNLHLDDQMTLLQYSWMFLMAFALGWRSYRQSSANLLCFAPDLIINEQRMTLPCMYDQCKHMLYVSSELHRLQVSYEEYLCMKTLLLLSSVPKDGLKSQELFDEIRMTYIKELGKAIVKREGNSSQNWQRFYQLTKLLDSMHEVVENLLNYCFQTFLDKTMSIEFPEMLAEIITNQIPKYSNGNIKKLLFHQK

A549 = assay: Selectivity index, Ratio of IC50 for progesterone receptor expressed in human T47 cells to IC50 for glucocorticoid receptor expressed in human A549 cells
Progesterone receptor = target: T2, Progesterone receptor (Homo sapiens, UniProt P06401); assay: Antagonist activity at progesterone receptor expressed in human T47 cells assessed as blockade of progesterone-induced alkaline phosphatase activity; assay type: functional, cell-based
T2 sequence (P06401 whole entry): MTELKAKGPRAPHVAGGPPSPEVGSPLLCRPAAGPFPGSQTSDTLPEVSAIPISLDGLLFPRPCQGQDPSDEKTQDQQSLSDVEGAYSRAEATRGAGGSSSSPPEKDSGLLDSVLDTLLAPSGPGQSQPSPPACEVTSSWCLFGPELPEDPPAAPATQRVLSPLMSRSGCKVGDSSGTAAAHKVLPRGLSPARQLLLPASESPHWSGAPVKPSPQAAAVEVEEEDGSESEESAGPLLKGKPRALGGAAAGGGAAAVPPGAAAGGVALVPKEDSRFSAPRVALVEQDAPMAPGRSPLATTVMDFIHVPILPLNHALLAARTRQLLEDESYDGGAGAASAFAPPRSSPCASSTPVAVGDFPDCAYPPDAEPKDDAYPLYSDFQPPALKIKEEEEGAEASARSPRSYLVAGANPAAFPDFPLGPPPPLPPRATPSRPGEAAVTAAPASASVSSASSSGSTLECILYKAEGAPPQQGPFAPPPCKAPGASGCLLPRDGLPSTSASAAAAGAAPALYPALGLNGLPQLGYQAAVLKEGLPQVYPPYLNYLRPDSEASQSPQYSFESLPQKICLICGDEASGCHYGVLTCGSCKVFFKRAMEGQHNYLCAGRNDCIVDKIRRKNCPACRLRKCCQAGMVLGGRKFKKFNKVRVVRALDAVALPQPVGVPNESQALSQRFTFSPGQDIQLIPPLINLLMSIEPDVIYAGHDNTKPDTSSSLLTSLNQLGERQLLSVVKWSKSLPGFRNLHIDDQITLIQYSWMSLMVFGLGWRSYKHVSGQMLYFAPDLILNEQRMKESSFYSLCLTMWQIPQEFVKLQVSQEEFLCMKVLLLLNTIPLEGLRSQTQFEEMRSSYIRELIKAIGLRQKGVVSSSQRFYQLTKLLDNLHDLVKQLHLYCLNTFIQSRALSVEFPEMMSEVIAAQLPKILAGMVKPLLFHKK

[2] = Clearance in mouse at 2 mg/kg, iv; assay type: ADME, organism-based; set-up: dose 2 mg/kg, route intravenous; conditions: in vivo
[3] = Metabolic stability in monkey microsomes assessed as half life; assay type: ADME, Macaca mulatta, Microsome; conditions: rhesus monkey
hERG (KCNH2) = hERG (KCNH2) (Homo sapiens, UniProt Q12809); assay: Inhibition of hERG at 10 uM; assay type: toxicity
hERG (KCNH2), sequence (Q12809 whole entry): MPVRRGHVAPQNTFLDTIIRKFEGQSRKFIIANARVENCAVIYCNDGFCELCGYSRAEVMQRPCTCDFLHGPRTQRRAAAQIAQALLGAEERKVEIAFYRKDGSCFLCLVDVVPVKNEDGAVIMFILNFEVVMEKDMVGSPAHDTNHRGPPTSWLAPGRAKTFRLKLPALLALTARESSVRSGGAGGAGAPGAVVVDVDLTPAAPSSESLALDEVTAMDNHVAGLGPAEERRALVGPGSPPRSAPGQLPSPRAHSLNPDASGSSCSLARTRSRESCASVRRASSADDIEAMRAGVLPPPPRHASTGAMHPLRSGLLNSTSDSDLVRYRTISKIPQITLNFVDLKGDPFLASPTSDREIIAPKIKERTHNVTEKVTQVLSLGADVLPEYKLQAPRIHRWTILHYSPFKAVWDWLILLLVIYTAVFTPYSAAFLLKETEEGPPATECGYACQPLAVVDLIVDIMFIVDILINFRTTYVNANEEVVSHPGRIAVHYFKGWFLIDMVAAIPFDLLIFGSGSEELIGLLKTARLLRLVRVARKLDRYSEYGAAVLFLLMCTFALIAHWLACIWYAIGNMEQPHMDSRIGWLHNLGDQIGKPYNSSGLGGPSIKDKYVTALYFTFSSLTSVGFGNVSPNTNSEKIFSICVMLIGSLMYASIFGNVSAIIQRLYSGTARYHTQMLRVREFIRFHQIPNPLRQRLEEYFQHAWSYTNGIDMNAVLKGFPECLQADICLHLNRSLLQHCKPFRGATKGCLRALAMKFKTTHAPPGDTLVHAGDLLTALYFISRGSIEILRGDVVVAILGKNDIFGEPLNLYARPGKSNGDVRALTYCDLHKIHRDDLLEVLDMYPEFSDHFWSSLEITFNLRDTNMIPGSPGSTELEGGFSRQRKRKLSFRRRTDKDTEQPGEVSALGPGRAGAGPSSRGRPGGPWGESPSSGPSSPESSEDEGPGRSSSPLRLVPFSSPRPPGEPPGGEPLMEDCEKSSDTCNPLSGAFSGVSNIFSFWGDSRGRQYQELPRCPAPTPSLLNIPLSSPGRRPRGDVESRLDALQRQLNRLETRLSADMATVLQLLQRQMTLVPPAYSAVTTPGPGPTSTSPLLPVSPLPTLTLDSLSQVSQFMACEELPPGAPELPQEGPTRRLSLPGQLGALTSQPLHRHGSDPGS

[4] = Cmax in mouse at 10 mg/kg, po; assay type: ADME, organism-based; set-up: dose 10 mg/kg, route oral; conditions: in vivo
[5] = Half life in mouse at 2 mg/kg, iv; assay type: ADME, organism-based; set-up: dose 2 mg/kg, route intravenous; conditions: in vivo
[6] = Half life in mouse at 10 mg/kg, po; assay type: ADME, organism-based; set-up: dose 10 mg/kg, route oral; conditions: in vivo
[7] = Metabolic stability in dog microsomes assessed as half life; assay type: ADME, Canis lupus familiaris, Microsome
[8] = Metabolic stability in rabbit microsomes assessed as half life; assay type: ADME, Oryctolagus cuniculus, Microsome
[9] = Metabolic stability in rat microsomes assessed as half life; assay type: ADME, Microsome
[10] = Tmax in mouse at 2 mg/kg, iv; assay type: ADME, organism-based; set-up: dose 2 mg/kg, route intravenous; conditions: in vivo
Mus musculus = assay: Decrease in plasma glucose level in po dosed ob/ob mouse after 15 days by OGTT; assay type: functional, organism-based
[11] = Oral bioavailability in mouse at 10 mg/kg; assay type: ADME, organism-based; conditions: in vivo
[12] = Metabolic stability in human microsomes assessed as half life; assay type: ADME, Microsome
[13] = Tmax in mouse at 10 mg/kg, po; assay type: ADME, organism-based; set-up: dose 10 mg/kg, route oral; conditions: in vivo
[14] = Metabolic stability in mouse microsomes assessed as half life; assay type: ADME, Microsome
[15] = Cmax in mouse at 2 mg/kg, iv; assay type: ADME, organism-based; set-up: dose 2 mg/kg, route intravenous; conditions: in vivo

Molecule `C=CC[C@]1(O)CC[C@H]2[C@@H]3CCC4=CC(=O)CCC4=C3[C@@H](c3ccc(P(=O)(OCC)OCC)cc3)C[C@@]21C` has a Papp [1] of 14.5 ×10⁻⁶ cm/s, a Ki (Glucocorticoid receptor) of 10 nM and a Ratio (A549) of 30.8. For the same molecule, the IC50 (Progesterone receptor) was 308 nM.

In the case of `C=CC[C@]1(O)CC[C@H]2[C@@H]3CCC4=CC(=O)CCC4=C3[C@@H](c3ccc(P(=O)(c4ccccc4)c4ccccc4)cc3)C[C@@]21C`, the clearance [2] is reported as 7.98 mL/min/kg, the half-life [3] is reported as 8 min and the inhibition at 10 µM (hERG (KCNH2)) is reported as 27.8%. It also gave a Cmax [4] of 1850 ng/mL, a Papp [1] of 2.6 ×10⁻⁶ cm/s and a half-life [5] of 46.2 min. It also gave a half-life [6] of 132 min, a half-life [7] of 21 min and a half-life [8] of 30 min. It also gave a Ki (Glucocorticoid receptor) of 10 nM, a half-life [9] greater than 30 min and a Tmax [10] of 4.8 min. For the same molecule, the Activity (Mus musculus) was “Active”, the bioavailability [11] was 59% and the Ratio (A549) was 76.3. For the same molecule, the half-life [12] was greater than 30 min, the IC50 (Progesterone receptor) was 763 nM and the Tmax [13] was 120 min. For the same molecule, the half-life [14] was 28 min and the Cmax [15] was 5290 ng/mL.

Work on `C=C1CCO[C@]12CC[C@H]1[C@@H]3CCC4=CC(=O)CCC4=C3[C@@H](c3ccc(P(C)(=O)OCC)cc3)C[C@@]12C` (stereo not given in full) yielded a Ki (Glucocorticoid receptor) of 59.8 nM, a Ratio (A549) of 0.027 and an IC50 (Progesterone receptor) of 1.6 nM.

In the case of `C[C@]12C[C@H](c3ccc(P(=O)(c4ccccc4)c4ccccc4)cc3)C3=C4CCC(=O)C=C4CC[C@H]3[C@@H]1CC[C@@]2(O)c1ccccc1`, the Ki (Glucocorticoid receptor) is reported as 20 nM, the Ratio (A549) is reported as 13.8 and the IC50 (Progesterone receptor) is reported as 275 nM.

`CC#C[C@]1(O)CC[C@H]2[C@@H]3CCC4=CC(=O)CCC4=C3[C@@H](c3ccc(N(C)C)cc3)C[C@@]21C` [MIFEPRISTONE] showed a clearance [2] of 115 mL/min/kg, a Cmax [4] of 30 ng/mL and a half-life [5] of 240 min. For the same molecule, the half-life [6] was 168 min, the Tmax [10] was 4.8 min and the Activity (Mus musculus) was “Active”. The bioavailability [11] was 31%, the Tmax [13] was 60 min and the Cmax [15] was 2800 ng/mL.

Work on `C=C1CCO[C@]12CC[C@H]1[C@@H]3CCC4=CC(=O)CCC4=C3[C@@H](c3ccc(P(C)(=O)O)cc3)C[C@@]12C` yielded a Ki (Glucocorticoid receptor) greater than 3000 nM and an IC50 (Progesterone receptor) greater than 1000 nM.

`CC#C[C@]1(O)CC[C@H]2[C@@H]3CCC4=CC(=O)CCC4=C3[C@@H](c3ccc(P(=O)(OCC)OCC)cc3)C[C@@]21C` showed a Ki (Glucocorticoid receptor) of 9 nM, a Ratio (A549) of 15.7 and an IC50 (Progesterone receptor) of 141 nM.

With `C=C1CCO[C@]12CC[C@H]1[C@@H]3CCC4=CC(=O)CCC4=C3[C@@H](c3ccc(P(=O)(OCC)OCC)cc3)C[C@@]12C` the Ki (Glucocorticoid receptor) was 56.3 nM, the Ratio (A549) was 0.17 and the IC50 (Progesterone receptor) was 9.9 nM.

`CC#C[C@]1(O)CC[C@H]2[C@@H]3CCC4=CC(=O)CCC4=C3[C@@H](c3ccc(P(=O)(c4ccccc4)c4ccccc4)cc3)C[C@@]21C` gave a Ki (Glucocorticoid receptor) of 3 nM, a Ratio (A549) of 127 and an IC50 (Progesterone receptor) of 381 nM.

`CC#C[C@]1(O)CC[C@H]2[C@@H]3CCC4=CC(=O)CCC4=C3[C@@H](c3ccc(P(C)(C)=O)cc3)C[C@@]21C` showed an IC50 (Glucocorticoid receptor) of 10 nM, a Ratio (A549) of 10.1 and an IC50 (Progesterone receptor) of 101 nM.

Molecule `C=C1CCO[C@]12CC[C@H]1[C@@H]3CCC4=CC(=O)CCC4=C3[C@@H](c3ccc(P(=O)(O)OCC)cc3)C[C@@]12C` has a Ki (Glucocorticoid receptor) greater than 3000 nM and an IC50 (Progesterone receptor) greater than 1000 nM.
